Measurements published in patent US20050070554A1, “Substituted heterocyclic compounds and methods of use” (Amgen Inc., priority 2003, published 2005).
pIC50: −log10 of the molar value. Where two headings read alike, the source gives them in different places.

Target: T1, LCK (Homo sapiens, UniProt P06239)
T1 construct: LCK KD GST (225-509); GST
Assay: LCK-Homogeneous Time Resolved Fluorescent (HTRF) Kinase Assay
Type: biochemical
Method: LCK-Homogeneous Time Resolved Fluorescent (HTRF) Kinase Assay:
The LCK HTRF assay begins with LCK in the presence of ATP phosphorylating the biotinylated peptide Gastrin. The reaction incubates for 90 min. To quench the assay detection reagents are added which both stop the reaction by diluting out the enzyme and chelating the metals due to the presence of EDTA. Once the detection reagents are added the assay incubates for 30 min to allow for equilibration of the detection reagents.
Buffer conditions are as follows: 50 mM HEPES pH 7.5, 50 mM NaCl, 20 mM MgCl, 5 mM MnCl, 2 mM DTT, 0.05% BSA.
The assay is quenched and stopped with 160 μL of detection reagent. Detection reagents are as follows: Buffer made of 50 mM Tris, pH 7.5, 100 mM NaCl, 3 mM EDTA, 0.05% BSA, 0.1% Tween20.
The assay plate is read in either a Discovery or a RubyStar.

[1] = read-out: activity in the LCK-HTRF Kinase Assay

T1 sequence (P06239 225-509): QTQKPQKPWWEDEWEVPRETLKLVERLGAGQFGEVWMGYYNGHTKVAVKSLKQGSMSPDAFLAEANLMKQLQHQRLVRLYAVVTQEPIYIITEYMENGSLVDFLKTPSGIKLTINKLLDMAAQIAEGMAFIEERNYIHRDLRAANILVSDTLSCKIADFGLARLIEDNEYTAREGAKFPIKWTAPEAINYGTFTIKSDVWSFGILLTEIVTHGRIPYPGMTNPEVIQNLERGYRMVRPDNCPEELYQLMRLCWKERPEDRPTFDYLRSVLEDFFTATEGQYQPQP

| SMILES | pIC50 [1] | pIC50 |
| --- | --- | --- |
| Cc1cccc(C)c1-n1c(=O)c2cnc(Nc3ccc(N4CCNCC4)cc3)nc2n2c3ccccc3nc12 [No. 2, 6-(2,6-dimethylphenyl)-2-((4-(1-piperazinyl)phenyl)-amino)pyrimido[5′,4′:5,6]pyrimido[1,2-a]-benzimidazol-5(6H)-one] | > 6.00 | – |
| Cc1cccc(C)c1-n1c(=O)c2cnc(Nc3ccc(N4CCN(C(=O)OC(C)(C)C)CC4)cc3)nc2n2c3ccccc3nc12 [No. 3, 1,1-dimethylethyl 4-(4-((6-(2,6-dimethylphenyl)-5-oxo-5,6-dihydropyrimido[5′,4′:5,6]pyrimido[1,2-a]-benzimidazol-2-yl)amino)phenyl)-1-piperazinecarboxylate] | > 6.00 | – |
| COc1cc(Nc2ncc3c(=O)n(-c4c(C)cccc4C)c4nc5ccccc5n4c3n2)ccc1OCCC1CCN(C)CC1 [No. 4, 6-(2,6-dimethylphenyl)-2-((3-(methyloxy)-4-((2-(1-methyl-4-piperidinyl)ethyl)oxy)phenyl)amino)-pyrimido[5′,4′:5,6]pyrimido[1,2-a]benzimidazol-5(6H)-one] | > 6.00 | – |
| Cc1cccc(C)c1-n1c(=O)c2cnc(Nc3ccc(OCCCN4CCCCC4)c(F)c3)nc2n2c3ccccc3nc12 [No. 5, 6-(2,6-dimethylphenyl)-2-((3-fluoro-4-((3-(1-piperidinyl)propyl)oxy)phenyl)amino)-pyrimido[5′,4′:5,6]pyrimido[1,2-a]benzimidazol-5(6H)-one] | > 6.00 | – |
| CCN(CC)CCCOc1ccc(Nc2ncc3c(=O)n(-c4c(C)cccc4C)c4nc5ccccc5n4c3n2)cc1F [No. 6, 2-((4-((3-(diethylamino)propyl)oxy)-3-fluorophenyl)-amino)-6-(2,6-dimethylphenyl)pyrimido[5′,4′:5,6]-pyrimido[1,2-a]benzimidazol-5(6H)-one] | > 6.00 | – |
| Cc1cccc(C)c1-n1c(=O)c2cnc(Nc3ccc(OCCCN4CCN(C)CC4)c(F)c3)nc2n2c3ccccc3nc12 [No. 7, 6-(2,6-dimethylphenyl)-2-((3-fluoro-4-((3-(4-methyl-1-piperazinyl)propyl)oxy)phenyl)amino)-pyrimido[5′,4′:5,6]pyrimido[1,2-a]benzimidazol-5(6H)-one] | > 6.00 | – |
| Cc1cccc(C)c1-n1c(=O)c2cnc(Nc3ccc(OCCN(C)C)cc3)nc2n2c3ccccc3nc12 [No. 8, 2-((4-((2-(dimethylamino)ethyl)oxy)phenyl)amino)-6-(2,6-dimethylphenyl)pyrimido[5′,4′:5,6]pyrimido[1,2-a]benzimidazol-5(6H)-one] | > 6.00 | – |
| COc1cc(Nc2ncc3c(=O)n(-c4c(C)cccc4C)c4nc5ccccc5n4c3n2)cc(OC)c1OCCCN1CCN(C)CC1 [No. 9, 2-((3,5-bis(methyloxy)-4-((3-(4-methyl-1-piperazinyl)propyl)oxy)phenyl)amino)-6-(2,6-dimethylphenyl)pyrimido[5′,4′:5,6]pyrimido[1,2-a]-benzimidazol-5(6H)-one] | – | > 6.00 |
| COc1cc(Nc2ncc3c(=O)n(-c4c(C)cccc4C)c4nc5ccccc5n4c3n2)ccc1OCCN1CCN(C)CC1 [No. 10, 6-(2,6-dimethylphenyl)-2-((3-(methyloxy)-4-((2-(4-methyl-1-piperazinyl)ethyl)oxy)phenyl)amino)-pyrimido[5′,4′:5,6]pyrimido[1,2-a]benzimidazol-5(6H)-one] | – | > 6.00 |
| COc1cc(Nc2ncc3c(=O)n(-c4c(C)cccc4C)c4nc5ccccc5n4c3n2)cc(OCCN2CCN(C)CC2)c1OC [No. 11, 2-((3,4-bis(methyloxy)-5-((2-(4-methyl-1-piperazinyl)ethyl)oxy)phenyl)amino)-6-(2,6-dimethylphenyl)pyrimido[5′,4′:5,6]pyrimido[1,2-a]-benzimidazol-5(6H)-one] | > 6.00 | – |
| COc1cc(Nc2ncc3c(=O)n(-c4c(C)cccc4C)c4nc5ccccc5n4c3n2)ccc1OCC1CCN(C)CC1 [No. 12, 6-(2,6-dimethylphenyl)-2-((3-(methyloxy)-4-(((1-methyl-4-piperidinyl)methyl)oxy)phenyl)amino)-pyrimido[5′,4′:5,6]pyrimido[1,2-a]benzimidazol-5(6H)-one] | > 6.00 | – |
| Cc1cc(N2CCN(C)CC2)ccc1Nc1ncc2c(=O)n(-c3c(C)cccc3C)c3nc4ccccc4n3c2n1 [No. 13, 6-(2,6-dimethylphenyl)-2-((2-methyl-4-(4-methyl-1-piperazinyl)phenyl)amino)pyrimido[5′,4′:5,6]-pyrimido[1,2-a]benzimidazol-5(6H)-one] | > 6.00 | – |
| Cc1cccc(C)c1-n1c(=O)c2cnc(Nc3ccc(OC[C@@H]4CCCN4)cc3)nc2n2c3ccccc3nc12 [No. 14, 6-(2,6-dimethylphenyl)-2-((4-(((2S)-2-pyrrolidinylmethyl)oxy)phenyl)amino)-pyrimido[5′,4′:5,6]pyrimido[1,2-a]benzimidazol-5(6H)-one] | > 6.00 | – |
| Cc1cc(OCCCN2CCCCC2)ccc1Nc1ncc2c(=O)n(-c3c(C)cccc3C)c3nc4ccccc4n3c2n1 [No. 15, 6-(2,6-dimethylphenyl)-2-((2-methyl-4-((3-(1-piperidinyl)propyl)oxy)phenyl)amino)-pyrimido[5′,4′:5,6]pyrimido[1,2-a]benzimidazol-5(6H)-one] | > 6.00 | – |
| Cc1cc(OCCCN2CCN(C)CC2)ccc1Nc1ncc2c(=O)n(-c3c(C)cccc3C)c3nc4ccccc4n3c2n1 [No. 16, 6-(2,6-dimethylphenyl)-2-((2-methyl-4-((3-(4-methyl-1-piperazinyl)propyl)oxy)phenyl)amino)-pyrimido[5′,4′:5,6]pyrimido[1,2-a]benzimidazol-5(6H)-one] | > 6.00 | – |
| COc1cc(Nc2ncc3c(=O)n(-c4c(C)cccc4C)c4nc5ccccc5n4c3n2)cc(OC)c1OC [No. 18, 6-(2,6-dimethylphenyl)-2-((3,4,5-tris(methyloxy)-phenyl)amino)pyrimido[5′,4′:5,6]pyrimido[1,2-a]-benzimidazol-5(6H)-one] | > 6.00 | – |
| COc1cc(Nc2ncc3c(=O)n(-c4c(C)cccc4C)c4nc5ccccc5n4c3n2)ccc1N1CCN(C)CC1 [No. 19, 6-(2,6-dimethylphenyl)-2-((3-(methyloxy)-4-(4-methyl-1-piperazinyl)phenyl)amino)-pyrimido[5′,4′:5,6]pyrimido[1,2-a]benzimidazol-5(6H)-one] | – | > 6.00 |
| COc1cc(Nc2ncc3c(=O)n(-c4c(C)cccc4C)c4nc5ccccc5n4c3n2)ccc1OCCCN1CCN(C)CC1 [No. 20, 6-(2,6-dimethylphenyl)-2-((3-(methyloxy)-4-((3-(4-methyl-1-piperazinyl)propyl)oxy)phenyl)amino)-pyrimido[5′,4′:5,6]pyrimido[1,2-a]benzimidazol-5(6H)-one] | – | > 6.00 |
| COc1cc(Nc2ncc3c(=O)n(-c4c(C)cccc4C)c4nc5ccccc5n4c3n2)cc(OCCCN2CCN(C)CC2)c1OC [No. 21, 2-((3,4-bis(methyloxy)-5-((3-(4-methyl-1-piperazinyl)propyl)oxy)phenyl)amino)-6-(2,6-dimethylphenyl)pyrimido[5′,4′:5,6]pyrimido[1,2-a]-benzimidazol-5(6H)-one] | > 6.00 | – |
| COc1cc(Nc2ncc3c(=O)n(-c4c(C)cccc4C)c4nc5ccccc5n4c3n2)cc(OC)c1OCCN1CCN(C)CC1 [No. 22, 2-((3,5-bis(methyloxy)-4-((2-(4-methyl-1-piperazinyl)ethyl)oxy)phenyl)amino)-6-(2,6-dimethylphenyl)pyrimido[5′,4′:5,6]pyrimido[1,2-a]-benzimidazol-5(6H)-one] | > 6.00 | – |
| Cc1cccc(C)c1-n1c(=O)c2cnc(Nc3ccc(OC[C@H]4CCCN4)cc3)nc2n2c3ccccc3nc12 [No. 23, 6-(2,6-dimethylphenyl)-2-((4-(((2R)-2-pyrrolidinylmethyl)oxy)phenyl)amino)-pyrimido[5′,4′:5,6]pyrimido[1,2-a]benzimidazol-5(6H)-one] | > 6.00 | – |
| Cc1cccc(C)c1-n1c(=O)c2cnc(Nc3ccc(OCCC4CCN(C)CC4)cc3)nc2n2c3ccccc3nc12 [No. 24, 6-(2,6-dimethylphenyl)-2-((4-((2-(1-methyl-4-piperidinyl)ethyl)oxy)phenyl)amino)-pyrimido[5′,4′:5,6]pyrimido[1,2-a]benzimidazol-5(6H)-one] | > 6.00 | – |
| COc1cc(Nc2ncc3c(=O)n(-c4c(C)cccc4C)c4nc5ccccc5n4c3n2)cc(OC)c1OCCN1CCCCC1 [No. 25, 2-((3,5-bis(methyloxy)-4-((2-(1-piperidinyl)ethyl)-oxy)phenyl)amino)-6-(2,6-dimethylphenyl)-pyrimido[5′,4′:5,6]pyrimido[1,2-a]benzimidazol-5(6H)-one] | > 6.00 | – |
| Cc1cccc(C)c1-n1c(=O)c2cnc(Nc3ccc(N4CCN(C)CC4)c(F)c3)nc2n2c3ccccc3nc12 [No. 26, 6-(2,6-dimethylphenyl)-2-((3-fluoro-4-(4-methyl-1-piperazinyl)phenyl)amino)pyrimido[5′,4′:5,6]-pyrimido[1,2-a]benzimidazol-5(6H)-one] | > 6.00 | – |
| Cc1cccc(C)c1-n1c(=O)c2cnc(Nc3ccc(OCCN4CCCCC4)cc3)nc2n2c3ccccc3nc12 [No. 27, 6-(2,6-dimethylphenyl)-2-((4-((2-(1-piperidinyl)-ethyl)oxy)phenyl)amino)pyrimido[5′,4′:5,6]-pyrimido[1,2-a]benzimidazol-5(6H)-one] | > 6.00 | – |
| Cc1cccc(C)c1-n1c(=O)c2cnc(Nc3ccc(OC[C@@H]4CCCN4C)cc3)nc2n2c3ccccc3nc12 [No. 28, 6-(2,6-dimethylphenyl)-2-((4-((((2S)-1-methyl-2-pyrrolidinyl)methyl)oxy)phenyl)amino)-pyrimido[5′,4′:5,6]pyrimido[1,2-a]benzimidazol-5(6H)-one] | > 6.00 | – |
